Measured values from PubChem BioAssay AID463206 (Broad Institute, 2010).
Activity calls are given as the source filed them.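 How the source made its calls: active means caspase luminescence falls with dose and the half-maximal concentration AC50 from the fitted curve is at or below a set limit; inconclusive means flat fit at 30 to 70% signal loss, or invalid fit; inactive means AC50 above the limit, or signal rises instead.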

System: INS-1E cytokine-induced caspase-3/7, Caspase-Glo luminescence, 48 h
Assay: suppression of cytokine-driven beta-cell apoptosis – INS-1E rat cells, luminescence, orthogonal assay for beta-cell apoptosis protection project, dose response (AID 463206)

| Structure (SMILES) | AC50 |
| --- | --- |
| O=C(N/N=C/c1cc(Br)ccc1OC(=O)c1ccc(Br)cc1)c1ccncc1 | > 26 µM (inactive) |
| O=S(=O)(c1cccs1)N1CCN(CC(O)COc2cc(Cl)ccc2Cl)CC1 (stereo not drawn) | > 26 µM (inactive) |
| Cc1ccc2c(c1)c(/C=C/c1cc[n+](C)cc1)c(C)n2C | > 26 µM (inactive) |
| CCN1/C(=C/C=C/c2oc3ccc(-c4ccccc4)cc3[n+]2CC)Oc2ccc(-c3ccccc3)cc21 | > 26 µM (inactive) |
| Clc1ccc(SCc2cc(N3CCOCC3)nc(-c3ccccn3)n2)cc1 | > 26 µM (inactive) |
| Cc1ccc2[nH]c(=O)c(C3C(C#N)=C(N)Oc4c3ccc3cccnc43)cc2c1 (stereo not drawn) | > 26 µM (inactive) |
| CCOC(=O)CC1CCCCN1C(=O)c1cc(COc2cccc3cnccc23)on1 (stereo not drawn) | > 26 µM (inactive) |
| Cc1cccc2c(C(=O)N3CCN(c4ccccn4)CC3)cc(-c3cccc(Br)c3)nc12 | > 26 µM (inactive) |
| CCc1ccc(S(=O)(=O)/N=C2\C=C(Nc3ccc(C(=O)O)cc3)C(=O)c3ccccc32)cc1 | > 26 µM (inactive) |
| Cc1ccc(NC(=O)C(C)Sc2nnc(C)n2C2CC2)cc1S(=O)(=O)N1CCOCC1 (stereo not drawn) | > 26 µM (inactive) |
| Nc1c(C(=O)Nc2ccc(S(=O)(=O)N3CCCC3)cc2)sc2nc3ccc(OC(F)(F)F)cc3cc12 | > 26 µM (inactive) |
| COC(=O)C1CCCCN1C(=O)c1cc(COc2cccc3cnccc23)on1 (stereo not drawn) | > 26 µM (inactive) |
| O=C(NCCc1ccccc1)[C@@H]1CC=C[C@@H]2CCN(Cc3ccc(Cl)c(Cl)c3)C(=O)[C@@H]21 | > 12 µM (inactive) |
| CCCOC(=O)/C(C(N)=NCc1ccccc1)=C(\O)OCCC | > 26 µM (inactive) |
| Cc1cc(C)nc(OC(=O)c2ccc(Cl)cc2Cl)n1 | > 26 µM (inactive) |
| O=C(Nc1ccc(Cl)cc1)Nc1ccc(Cl)c(Cl)c1 | > 26 µM (inactive) |
| CCN1CCN(c2ccc(S(=O)(=O)N3CCCCC3)cc2NC(=O)c2ccc([N+](=O)[O-])o2)CC1 | > 26 µM (inactive) |
| c1ccc(Nc2nc(NCc3ccco3)c3ccccc3n2)cc1 | 23.7 µM |
| Cc1ccc(-c2cc(-c3ccc(C)cc3)[n+](-c3ccc(C(=O)[O-])cc3)c(-c3ccc(C)cc3)c2)cc1 | > 26 µM (inactive) |
| N#CC1=C(N)Oc2c(ccc3cccnc23)C1c1ccccc1 (stereo not drawn) | > 12 µM (inactive) |
| COc1cnc(-c2ccccn2)nc1N(C)C | > 26 µM (inactive) |
| Cc1ccc(S(=O)(=O)CC2CSc3nc4ccccc4n32)cc1 (stereo not drawn) | > 12 µM (inactive) |
| C1=C(CCNc2ncnc3c2[nH]c2ccccc23)CCCC1 | > 26 µM (inactive) |
| COc1ccc(/C(C)=N/Nc2nc(C)cc(-c3ccccc3)n2)cc1 | > 26 µM (inactive) |

| Structure (SMILES) | AC50 |
| --- | --- |
| CCOc1ccccc1NC(=O)c1nc(S(=O)(=O)Cc2cccc(C)c2)ncc1Cl | > 26 µM (inactive) |
| CC(=O)Nc1ccc(NC2=C/C(=N/S(=O)(=O)c3cccs3)c3ccccc3C2=O)cc1 | > 26 µM (inactive) |
| CCO[C@H]1OC(C(=O)N2CCN(Cc3ccc4c(c3)OCO4)CC2)=C[C@@H](c2csc3ccccc23)[C@@H]1CCCO | > 26 µM (inactive) |
| CC(Oc1ccc(Cl)cc1Cl)c1nc(-c2ccc(NC(=O)c3cccnc3)cc2)no1 (stereo not drawn) | > 26 µM (inactive) |
| COc1ccc(C(=O)N/N=C/c2ccccc2OC(=O)c2ccccc2)cc1 | > 26 µM (inactive) |
| CC1Cc2cc(S(=O)(=O)N3CCC(C(=O)N4CCN(c5ccccc5F)CC4)CC3)ccc2N1C(=O)C1CC1 (stereo not drawn) | > 26 µM (inactive) |
| OC(c1cc(-c2ccc(C(F)(F)F)cc2)nc(C(F)(F)F)c1)C1CCCCN1 (stereo not drawn) | > 26 µM (inactive) |
| O=C(NCc1ccccc1)C1=C[C@@H](c2csc3ccccc23)C[C@@H](OCc2ccc(CO)cc2)O1 | > 26 µM (inactive) |
| N#CCSc1nc2ccccc2c2nc3ccccc3n12 | > 26 µM (inactive) |
| COc1ccc(C(NC(C)=O)c2cc(Cl)c3cccnc3c2O)cc1 (stereo not drawn) | > 26 µM (inactive) |
| C[n+]1c2n(c3ccccc31)N=C(c1ccc(Cl)cc1)CS2 | > 26 µM (inactive) |
| CC(C)(C)n1[nH]c2c3c(ccc2c1=O)C(=O)c1ccccc1C3=O | > 26 µM (inactive) |
| CCCCCc1cc(=O)oc2c(C(CCN(CC)CC)c3ccc(OC)cc3)c(OC)cc(OC)c12 (stereo not drawn) | 23.2 µM |
| COc1ccc(/C=N/Nc2cc(C)nc3ccc(Br)cc23)cc1 | > 26 µM (inactive) |
| CCOc1cc(C)c(S(=O)(=O)Nc2ccc3cn[nH]c3c2)cc1C | > 12 µM (inactive) |
| Cc1ccc(NC2=CC(=O)C(=O)c3ccccc32)c(C)c1 | > 26 µM (inactive) |
| O=C(NCc1cccnc1)/C(=C/c1ccc(-c2ccc(Cl)cc2)o1)S(=O)(=O)c1ccccc1 | > 26 µM (inactive) |
| CC1CCC(C(C)C)C(OC(=O)C[n+]2cc(-c3ccc(Cl)cc3)n3c2CCCCC3)C1 (stereo not drawn) | > 26 µM (inactive) |
| O=[N+]([O-])c1cc(Cl)cc(/C=N\Nc2ccccn2)c1O | > 26 µM (inactive) |
| CCC(C)Nc1nc(-c2ccccn2)nc2ccccc12 (stereo not drawn) | > 26 µM (inactive) |
| COc1ccc(C)cc1Nc1n[n+](-c2ccccc2)c(-c2c(Cl)cccc2Cl)s1 | > 26 µM (inactive) |
| O=C1/C(=C/c2ccc(N3CCOCC3)o2)SC(=Nc2ccccc2)N1CCc1c[nH]c2ccccc12 | > 26 µM (inactive) |
| N#C/C(=N\Nc1cccc([N+](=O)[O-])c1)C(=O)c1ccc(Br)cc1 | > 26 µM (inactive) |
| COc1ccc(-c2c[n+]3c(n2-c2ccc(C)cc2)CCCCC3)cc1 | > 26 µM (inactive) |

| Structure (SMILES) | AC50 |
| --- | --- |
| CC(C)(C)c1cc[n+](C2=C([O-])c3ccccc3C(=O)/C2=N\S(=O)(=O)c2cccs2)cc1 | > 26 µM (inactive) |
| O=c1[nH]c(NCCCO)nc2c1C1(CCCC1)Cc1ccccc1-2 | > 26 µM (inactive) |
| CCOC(=O)CSc1nc2c(c(=O)[nH]1)C(C)(CC)Cc1ccccc1-2 (stereo not drawn) | > 26 µM (inactive) |
| CCN(C1CCCCC1)S(=O)(=O)c1ccc(S(=O)(=O)NCc2ccncc2)cc1 | > 26 µM (inactive) |
| COc1cnc(-c2ccccn2)nc1Sc1ccc(C)cc1 | > 26 µM (inactive) |
| Cc1ccc(S(=O)(=O)NCc2ccncc2)cc1C | > 26 µM (inactive) |
| O=C(/C(N=Nc1cccc([N+](=O)[O-])c1)=C(/O)c1ccc(Br)cc1)C(F)(F)F | > 26 µM (inactive) |
| COC(=O)c1ccc(NC(=O)c2nc(S(=O)(=O)Cc3cccc(C)c3)ncc2Cl)cc1 | > 26 µM (inactive) |
| Clc1ccc(C(Cn2ccnc2)OCc2csc3c(Cl)cccc23)c(Cl)c1 (stereo not drawn) | > 26 µM (inactive) |
| Cc1ccc(C(=O)OCn2ncc(Cl)c(Cl)c2=O)cc1 | > 26 µM (inactive) |
| Cn1nccc1C(=O)NC1CCCc2c1cnn2-c1ccccc1F (stereo not drawn) | > 26 µM (inactive) |
| CCC1=NN(C(=O)c2cccc(Br)c2)C(O)(c2ccc(Br)cc2)C1 (stereo not drawn) | > 26 µM (inactive) |
| COc1ccc2cc1Oc1ccc(cc1)C[C@H]1c3c(cc(OC)c4c3Oc3c(ccc5c3[C@H](C2)N(C)CC5)O4)CCN1C | > 26 µM (inactive) |
| CCCCCCCCCCOC(=O)Cn1c(COc2ccccc2)[n+](C)c2ccccc21 | > 26 µM (inactive) |
| Cn1nccc1C(=O)NC1CCCc2c1cnn2-c1ccc(F)cc1F (stereo not drawn) | > 26 µM (inactive) |
| Cc1ccc(C)c(NC(=O)c2ccccc2NS(=O)(=O)c2cc([N+](=O)[O-])ccc2C)c1 | > 26 µM (inactive) |
| Cc1ccccc1N1CCN(Cc2c[nH]c3ccccc23)CC1 | > 26 µM (inactive) |
| CCCC(=O)NC(c1ccccc1)c1ccc2cccnc2c1O (stereo not drawn) | > 26 µM (inactive) |
| O=C(N/N=C/c1sc(N2CCOCC2)nc1-c1ccccc1)c1cccc(S(=O)(=O)N2CCCC2)c1 | > 26 µM (inactive) |
| Cc1ccc(NC(=O)c2ccccc2NS(=O)(=O)c2ccc(Cl)s2)cc1 | > 26 µM (inactive) |
| COc1ccc(S(=O)(=O)/N=C2\C=C(Nc3ccc(O)cc3)C(=O)c3ccccc32)cc1 | > 26 µM (inactive) |
| CCCCCn1c(=O)c(C(=O)NCc2ccccc2Cl)c(O)c2ccccc21 | > 26 µM (inactive) |
| COc1ccc(-c2n(Cc3ccccc3)c3ccccc3[n+]2Cc2ccccc2)cc1 | > 26 µM (inactive) |
| CN1/C(=C\C=N\NC(=O)c2ccc(O)cc2)C(C)(C)c2ccccc21 | > 26 µM (inactive) |

| Structure (SMILES) | AC50 |
| --- | --- |
| COc1cccc(/C=N/NC(=O)CN2CC(c3ccccc3)CC2=O)c1O (stereo not drawn) | > 26 µM (inactive) |
| Oc1c(CN2CCN(c3ccc(F)cc3)CC2)cc(Cl)c2cccnc12 | > 26 µM (inactive) |
| CCCCCCCCCC[N+](C)(C)CC/C=C1/c2ccccc2Sc2ccc(Cl)cc21 | > 26 µM (inactive) |
| O=S(=O)(c1ccc(NC(=S)NCc2cccnc2)cc1)N1CCCCC1 | > 26 µM (inactive) |
| CNC[C@H](CC1CCCCC1)NC[C@H](Cc1ccccc1)NCCC12CC3CC(CC(C3)C1)C2 | > 26 µM (inactive) |
| Cc1ccc([N+](=O)[O-])c(OCCN2CCCCCC2)c1 | > 26 µM (inactive) |
| CCC[N+]1(CC#CCC(c2ccccc2)c2ccccc2)CCCCC1 | > 26 µM (inactive) |
| CCCCCCCCCCCCCCCC[n+]1cccc(C(=O)N(CC)CC)c1 | > 26 µM (inactive) |
| COc1cccc(COc2cc3ccccc3nc2C)c1 | > 26 µM (inactive) |
| COc1cc(OC)c(NC2=CC(=O)C(=O)c3ccccc32)cc1Cl | > 26 µM (inactive) |
| Cc1cc[n+](C(C)C(=O)c2ccc(-c3ccccc3)cc2)cc1 (stereo not drawn) | > 26 µM (inactive) |
| O=S(=O)(c1ccc2nc(Nc3ccccc3)ccc2c1)N1CCCCC1 | > 26 µM (inactive) |
| COc1ccc(C2CC(c3cccc(C)c3)n3nc(N)nc3N2)cc1 (stereo not drawn) | > 26 µM (inactive) |
| CCCCNc1c(-c2cccc(-c3ccc(OC)cc3)c2)nc2ccc(C)cn12 | > 26 µM (inactive) |
| O=C1CSC(c2cccnc2)N1CC1CC1 (stereo not drawn) | > 26 µM (inactive) |
| CC1CCc2c(sc3nc(C(C)(C)C)nc(N4CCN(C(=O)CCl)CC4)c23)C1 (stereo not drawn) | > 26 µM (inactive) |
| Cc1sc2ncnc(N3CCN(S(=O)(=O)c4ccccc4)CC3)c2c1C | > 26 µM (inactive) |
| CCOc1ccc(/C=N/Nc2ccc(Cl)nn2)c(O)c1 | > 26 µM (inactive) |
| COc1ccc(CC(=O)Nc2nc(-c3ccc(F)c(F)c3)cs2)cc1OC | 26.5 µM |
| CCOc1cccc(/C=N/Nc2ccc(S(=O)(=O)N(CC)CC)cn2)c1O | > 26 µM (inactive) |
| Cc1ccc2nc(-c3ccc(-c4cccc(Cl)c4)cc3)c(NCc3ccccc3)n2c1 | > 26 µM (inactive) |
